How the values were obtained:
Type in all cases: cell-based
[1] = test system: Navicula pelliculosa; assay: Inhibition zones around polymer pellets, diatom Navicula; details: pellet without herbicide 10 ± 1
Description: (§1) Rectangular copolymer pellets (15×10×1.5 mm) were formed from a model acrylic resin (designated as 459S2) containing several epoxy acrylic oligomers (57%), acrylic monomeric diluents (43%) and a corresponding amount of herbicide. A designated quantity of herbicide was dispersed or partially dissolved in 459S2 resin using ultrasonication and heat (60° C., overnight). To each sample, 1.5% wt. of commercial photoinitiator (ITX), 5% of ODAB synergist and 0.1% co-photoinitiator (Irgacure 819) were added. Liquid formulations were poured into an open top Teflon mold and irradiated under N2 by a 395 nm LED light source for 5 min followed by pellet removal.
(§2) Two different diatom cultures, Phaeodactylum tricornutum and Navicula pelliculosa were used in the biological activity tests. […] Following propagation over 5 days under continuous cool fluorescent light (5000 lx), the average radii of inhibition zones were measured. Experiments for each herbicide concentration were repeated at least two times.

[2] = test system: Phaeodactylum tricornutum; assay: Inhibition zones around polymer pellets, diatom Phaeodactylum; details: Phaeodactilum, pellet without herbicide 0
Description: as §1, §2

[3] = test system: cyanobacteria Synechococcus 7002; assay: Liquid culture growth inhibition (optical density), salt water cyanobacteria; details: Synechococcus 7002, BG-11 liquid medium, 1 mM herbicide, 7 days; control 0.72
Description: Strains of green algae, cyanobacteria and E. Coli were used as test organisms. The green algae CD 1 Red and cyanobacteria Synechocystos 6803 were obtained from the collection of Prof. George Bullerjahn. Salt water strain of cyanobacteria Synechococcus 7002 was obtained from the collection of Prof. Michael McKay. E Coli DH 5α was obtained from Invitrogen Inc.
Green algae and cyanobacteria were propagated photoautotrophically in 250 mL Erlenmeyer flasks containing 100 mL of liquid BG-11 culture medium (see Supporting Information). The cultures were kept on a rotating shaker (100 rpm) at 25° C. for 4 days and continuously illuminated with cool-white fluorescent light with a constant light intensity of 5000 lux. The grown culture medium was sterilized in an autoclave at 121° C. and 1.05 kg cm^−2 pressure for 20 min. For the cell experiments, 20 mL aliquots of the BG-11 medium containing the green algal ([cells]initial=5.9×10^7 mL^−1) or cyanobacteria cells ([cells]initial=1.7×10^9 mL^−1) were placed in sterile 50 mL Erlenmeyer flasks. CD 1 Red, Synechocystos 6803 and Synechococcus 7002 were then treated with an aliquot of a stock herbicide solution to bring the final herbicide concentration to 1 mM and incubated for 7 days on a rotator shaker (100 rpm) at 25° C. and continuous light intensity of 5000 lux. Cell counts were correlated with the absorbance and measured as a function of time using a Spectronic 20 Genesis spectrophotometer. As previously reported by Ma et al., 5 the optimal wavelength for monitoring culture growth is 680 nm. Experiments for each herbicide were repeated three times. Control and treated cultures were grown under the same conditions of temperature, photoperiod, and agitation. In each experiment, the inhibition of cell growth in treated cultures was monitored spectrophotometrically and compared to the growth in control samples.

[4] = test system: green algae CD 1 Red; details: BG-11 agar, 1 mM herbicide, homopolymer as film cast in Petri dish
Description: (§3) BG-11 medium containing 1.5 wt. % agar was prepared and sterilized at 121° C., 1.05 kg cm^−2 for 20 minutes. Each herbicide tested was prepared as a 30 mM solution and added to the autoclaved agar medium to yield a 1 mM final concentration of the herbicide. A 20 mL aliquot of the liquid agar was transferred into a standard Petri dish (100×15 mm) and allowed to harden at room temperature. Cell suspensions of green algae CD 1 Red, cyanobacteria Synechocystos 6803 and Synechococcus 7002 were inoculated using a sterile inoculation loop. Dishes were stored at 25° C. under illumination with the cool-white fluorescent light having a constant light intensity of 5000 lx. The experiment for each herbicide was repeated five times. Control and treated cultures grew under the same conditions of temperature and photoperiod. In each experiment, the inhibition of growth in treated cultures was monitored relative to the growth in control samples using qualitative visual observation.
(§4) Additional experiments for testing the toxicity of the homopolymer of AA were implemented. Ten mL of aqueous polymer solution was placed on a sterile Petri dish and left at room temperature until all water was evaporated (3 days) to form a thin polymer film. Twenty mL of the liquid agar was transferred into the Petri dish and allowed to harden at room temperature. Cell suspensions of green algae CD 1 Red, cyanobacteria Synechocystos 6803 and Synechococcus 7002 were inoculated using a sterile inoculation loop. An analogous system containing no polymer film was used as a control for the experiment. Inhibition of growth in treated cultures was monitored relative to the growth in control samples using qualitative visual observations.

[5] = test system: cyanobacteria Synechocystos 6803; details: Synechocystos 6803, BG-11 agar, 1 mM herbicide; homopolymer as film cast in Petri dish
Description: as §3, §4

[6] = test system: cyanobacteria Synechococcus 7002; details: Synechococcus 7002, BG-11 agar, 1 mM herbicide; homopolymer as film cast in Petri dish
Description: as §3, §4

[7] = herbicide 0.15 M in 459S2 polymer pellet
[8] = herbicide 0.3 M in 459S2 polymer pellet
[9] = herbicide 0.1 M in 459S2 polymer pellet

| SMILES | Diameter of Inhibition Zone (Bleaching indicates no growth detected on 100 mm plate) [1, 7] [mm] | Diameter of Inhibition Zone (Bleaching indicates no growth detected on 100 mm plate) [1, 8] | Diameter of Inhibition Zone (Bleaching indicates no growth detected on 100 mm plate) [2, 9] [mm] | Diameter of Inhibition Zone (Bleaching indicates no growth detected on 100 mm plate) [2, 8] | Optical Density at 680 nm after 7 days of media growth [3] | Growth on agar plates compared to control (visual) [4] | Growth on agar plates compared to control (visual) [5] | Growth on agar plates compared to control (visual) [6] |
| --- | --- | --- | --- | --- | --- | --- | --- | --- |
| O=C(O)CNCP(=O)(O)O [Glyphosate, N-(Phosphonomethyl)glycine, reference compound] | 22.5 ± 2 | Bleaching | 17.5 ± 2 | Bleaching | 0.04 | complete inhibition of growth and bleaching | complete inhibition of growth and bleaching | complete inhibition of growth and bleaching |
| C=CC(=O)N(CC(=O)O)CP(=O)(O)O [AA, N-Acryloyl-N-(phosphonomethyl)glycine] | 20 ± 2 | Bleaching | 23 ± 2 | Bleaching | 0.07 | complete inhibition of growth and bleaching | complete inhibition of growth and bleaching | complete inhibition of growth and bleaching |
